Reference: paper PMC3433420 (PLoS ONE, 2012)
Where two headings read alike, the source gives them in different places. Residues, ends and D or L forms follow the SMILES beside them.

Experiments:
PIK3R2-N SH2 domain = PIK3R2-N SH2 domain (Homo sapiens, UniProt O00459); test: FP saturation binding assay
[1] = molecular target: SYK-NC tandem SH2 domains (Homo sapiens, UniProt P43405); test: FP saturation binding assay
VAV1 SH2 domain = VAV1 SH2 domain (Homo sapiens, UniProt P15498); test: FP saturation binding assay
GRB2 SH2 domain = GRB2 SH2 domain (Homo sapiens, UniProt P62993); test: FP saturation binding assay
SH2 and PTB domains = details: original PM interactions, ref Jones et al. 2006 / Kaushansky et al. Chem and Biol 2008, cited from earlier work
Description: Supplement pone.0044471.s022.xlsx, sheet "Most recent PM interactions" | column: Kd || Supplement pone.0044471.s022.xlsx, sheet "All original PM interactions" | column: Kd

Chain of VAV1 SH2 domain (P15498 671-765 limits assumed): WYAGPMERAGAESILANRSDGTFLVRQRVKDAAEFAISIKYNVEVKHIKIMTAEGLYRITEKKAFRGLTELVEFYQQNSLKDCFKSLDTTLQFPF
Chain of GRB2 SH2 domain (P62993 60-152 limits assumed): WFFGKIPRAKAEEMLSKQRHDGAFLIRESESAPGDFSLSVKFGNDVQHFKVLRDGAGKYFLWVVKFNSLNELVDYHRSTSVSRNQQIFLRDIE
Chain of PIK3R2-N SH2 domain (O00459 330-425 limits assumed): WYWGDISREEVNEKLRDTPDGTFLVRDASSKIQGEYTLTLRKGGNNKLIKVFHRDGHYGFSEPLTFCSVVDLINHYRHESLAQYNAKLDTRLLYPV

Compound `CC(C)[C@H](NC(=O)[C@H](CC(=O)O)NC(=O)[C@@H]1CCCN1C(=O)[C@H](CCC(N)=O)NC(=O)[C@H](CC(N)=O)NC(=O)[C@@H](NC(=O)[C@H](Cc1ccc(OP(=O)(O)O)cc1)NC(=O)[C@H](CCC(=O)O)NC(=O)[C@@H]1CCCN1C(=O)[C@H](CCC(N)=O)NC(=O)[C@@H]1CCCN1)C(C)C)C(=O)N[C@@H](CCCNC(=N)N)C(=O)N[C@@H](CC(=O)O)C(=O)O` [ErbB2 1139 13-mer] (HELM PEPTIDE1{P.Q.P.E.[O=C([C@H](Cc1ccc(OP(=O)(O)O)cc1)N[*:1])[*:2]].V.N.Q.P.D.V.R.D}$$$$V2.0) has a Kd (PIK3R2-N SH2 domain) of 2200 nM.
Work on `CSCC[C@H](NC(=O)[C@H](Cc1ccc(OP(=O)(O)O)cc1)NC(=O)CNC(=O)[C@H](CCC(=O)O)NC(=O)[C@H](CCC(=O)O)NC(=O)[C@H](CC(=O)O)NC(=O)[C@H](CC(C)C)NC(=O)[C@H](CCC(=O)O)NC(=O)CNC(=O)[C@H](CCCNC(=N)N)NC(=O)[C@@H]1CCCN1)C(=O)N[C@H](C(=O)N1CCC[C@H]1C(=O)N[C@@H](CCSC)C(=O)N[C@@H](CCCNC(=N)N)C(=O)N[C@@H](CC(=O)O)C(=O)N[C@@H](CCCCN)C(=O)N[C@@H](CC(=O)O)C(=O)O)[C@@H](C)O` [ErbB4 1150 18-mer] (HELM PEPTIDE1{P.R.G.E.L.D.E.E.G.[O=C([C@H](Cc1ccc(OP(=O)(O)O)cc1)N[*:1])[*:2]].M.T.P.M.R.D.K.D}$$$$V2.0) yielded a Kd [1] of 6190 nM and a Kd (VAV1 SH2 domain) of 860 nM.
For `CC(C)C[C@H](NC(=O)[C@H](Cc1ccc(OP(=O)(O)O)cc1)NC(=O)[C@H](CC(C)C)NC(=O)[C@@H]1CCCN1C(=O)[C@H](CCC(=O)O)NC(=O)[C@H](CC(N)=O)NC(=O)[C@@H](NC(=O)[C@H](Cc1ccc(O)cc1)NC(=O)[C@H](CCC(=O)O)NC(=O)[C@H](CC(=O)O)NC(=O)[C@@H](N)CCC(=O)O)C(C)C)C(=O)N[C@@H](CC(N)=O)C(=O)N[C@H](C(=O)N[C@@H](Cc1ccccc1)C(=O)N[C@@H](C)C(=O)N[C@@H](CC(N)=O)C(=O)N[C@H](C(=O)N[C@@H](CC(=O)O)C(=O)O)[C@@H](C)O)[C@@H](C)O` [ErbB4 1208 18-mer] (HELM PEPTIDE1{E.D.E.Y.V.N.E.P.L.[O=C([C@H](Cc1ccc(OP(=O)(O)O)cc1)N[*:1])[*:2]].L.N.T.F.A.N.T.D}$$$$V2.0), the Kd (GRB2 SH2 domain) was 2460 nM.
For “DNLYpYWDQDPPEd [ErbB2 pY1222, N-terminally rhodamine-labeled 13-mer phosphopeptide]”, the Kd (SH2 and PTB domains; Protein ABL1) is given as 1840 nM, the Kd (SH2 and PTB domains; Protein ABL2) is given as 190 nM and the Kd (SH2 and PTB domains; Protein BCAR3) is given as 2000 nM. For the same compound, the Kd (SH2 and PTB domains; Protein BLK) was 2000 nM, the Kd (SH2 and PTB domains; Protein BMX) was 2000 nM and the Kd (SH2 and PTB domains; Protein BTK) was 2000 nM. For the same compound, the Kd (SH2 and PTB domains; Protein CRKL) was 1460 nM, the Kd (SH2 and PTB domains; Protein DAPP1) was 2000 nM and the Kd (SH2 and PTB domains; Protein FGR) was 2000 nM. For the same compound, the Kd (SH2 and PTB domains; Protein GRB10) was 490 nM, the Kd (SH2 and PTB domains; Protein HSH2D) was 2000 nM and the Kd (SH2 and PTB domains; Protein ITK) was 2000 nM. For the same compound, the Kd (SH2 and PTB domains; Protein NCK1) was 2000 nM, the Kd (SH2 and PTB domains; Protein PIK3R1-C) was 2000 nM and the Kd (SH2 and PTB domains; Protein PIK3R1-NC) was 1840 nM. The Kd (SH2 and PTB domains; Protein PIK3R2-NC) was 2000 nM, the Kd (SH2 and PTB domains; Protein PIK3R3-C) was 2000 nM and the Kd (SH2 and PTB domains; Protein PIK3R3-NC) was 780 nM. The Kd (SH2 and PTB domains; Protein PLCG1-N) was 2000 nM, the Kd (SH2 and PTB domains; Protein PLCG1-NC) was 1790 nM and the Kd (SH2 and PTB domains; Protein PLCG2-N) was 2000 nM. For the same compound, the Kd (SH2 and PTB domains; Protein PLCG2-NC) was 2000 nM, the Kd (SH2 and PTB domains; Protein PTPN6-C) was 2000 nM and the Kd (SH2 and PTB domains; Protein PTPN11-N) was 2000 nM. For the same compound, the Kd (SH2 and PTB domains; Protein RASA1-C) was 2000 nM, the Kd (SH2 and PTB domains; Protein RASA1-N) was 500 nM and the Kd (SH2 and PTB domains; Protein RASA1-NC) was 2000 nM. The Kd (SH2 and PTB domains; Protein SH2B2) was 1470 nM, the Kd (SH2 and PTB domains; Protein SH2B3) was 2000 nM and the Kd (SH2 and PTB domains; Protein SH2D1A) was 2000 nM. The Kd (SH2 and PTB domains; Protein SH2D1B) was 2000 nM, the Kd (SH2 and PTB domains; Protein SH2D3A) was 1600 nM and the Kd (SH2 and PTB domains; Protein SH2D3C) was 710 nM. For the same compound, the Kd (SH2 and PTB domains; Protein SHC1-PTB) was 90 nM, the Kd (SH2 and PTB domains; Protein SHC1) was 2000 nM and the Kd (SH2 and PTB domains; Protein SHC2-PTB) was 460 nM. For the same compound, the Kd (SH2 and PTB domains; Protein SHC3) was 1710 nM, the Kd (SH2 and PTB domains; Protein SHC4) was 2000 nM and the Kd (SH2 and PTB domains; Protein SHD) was 2000 nM. The Kd (SH2 and PTB domains; Protein SHF) was 2000 nM, the Kd (SH2 and PTB domains; Protein SLA2) was 2000 nM and the Kd (SH2 and PTB domains; Protein SLA) was 2000 nM. The Kd (SH2 and PTB domains; Protein SOCS1) was 1920 nM, the Kd (SH2 and PTB domains; Protein SOCS2) was 2000 nM and the Kd (SH2 and PTB domains; Protein SOCS3) was 2000 nM. For the same compound, the Kd (SH2 and PTB domains; Protein SOCS5) was 2000 nM, the Kd (SH2 and PTB domains; Protein SOCS6) was 2000 nM and the Kd (SH2 and PTB domains; Protein SRC) was 2000 nM. For the same compound, the Kd (SH2 and PTB domains; Protein SUPT6H) was 2000 nM, the Kd (SH2 and PTB domains; Protein SYK-C) was 1970 nM and the Kd (SH2 and PTB domains; Protein SYK-N) was 200 nM. For the same compound, the Kd (SH2 and PTB domains; Protein SYK-NC) was 460 nM, the Kd (SH2 and PTB domains; Protein TEC) was 1610 nM and the Kd (SH2 and PTB domains; Protein TENC1) was 840 nM. For the same compound, the Kd (SH2 and PTB domains; Protein TNS1) was 2000 nM, the Kd (SH2 and PTB domains; Protein TNS3) was 1290 nM and the Kd (SH2 and PTB domains; Protein TXK) was 2000 nM. The Kd (SH2 and PTB domains; Protein VAV1) was 2000 nM, the Kd (SH2 and PTB domains; Protein VAV2) was 2000 nM and the Kd (SH2 and PTB domains; Protein VAV3) was 2000 nM. For the same compound, the Kd (SH2 and PTB domains; Protein YES1) was 2000 nM.
